Measured values: patent EP4596574A1, “GLP-1/GCG/GIP TRIPLE-RECEPTOR AGONIST AND USE THEREOF” (Sunshine Lake Pharma Co., Ltd., priority 2022, dated 2024)
Starred links: 1 amine or outer side, 2 acyl side, 3 side chain; linkers in the order of their positions; H or OH if unused. Non-standard residues stand in square brackets, D forms with d. Residues, ends and D or L forms follow the SMILES beside them. Groups on a side chain read outwards from the residue. *: point of attachment. C18 diacid = O=C(O)CCCCCCCCCCCCCCCCC(=O)*; αMePhe(2-F) = C[C@](N)(Cc1ccccc1F)C(=O)O; γGlu = O=C(O)[C@H](CCC(=O)[*:2])N[*:1]; AEEA = NCCOCCOCC(=O)O; Aib = CC(C)(N)C(=O)O

Assays:
Assay type in all cases: cell-based
GCGR = biological target: T1, GCGR (Homo sapiens, UniProt P47871); experiment: In vitro cell activity, cAMP production in HEK293 cells expressing GCGR; conditions: HEK293-GCGR cells, cAMP; read-out: GCGR (EC50)
T1 construct: expressed in transfected cells; host or cells: HEK293 (HEK293-GCGR)
T1 sequence (P47871 26-477, species assumed): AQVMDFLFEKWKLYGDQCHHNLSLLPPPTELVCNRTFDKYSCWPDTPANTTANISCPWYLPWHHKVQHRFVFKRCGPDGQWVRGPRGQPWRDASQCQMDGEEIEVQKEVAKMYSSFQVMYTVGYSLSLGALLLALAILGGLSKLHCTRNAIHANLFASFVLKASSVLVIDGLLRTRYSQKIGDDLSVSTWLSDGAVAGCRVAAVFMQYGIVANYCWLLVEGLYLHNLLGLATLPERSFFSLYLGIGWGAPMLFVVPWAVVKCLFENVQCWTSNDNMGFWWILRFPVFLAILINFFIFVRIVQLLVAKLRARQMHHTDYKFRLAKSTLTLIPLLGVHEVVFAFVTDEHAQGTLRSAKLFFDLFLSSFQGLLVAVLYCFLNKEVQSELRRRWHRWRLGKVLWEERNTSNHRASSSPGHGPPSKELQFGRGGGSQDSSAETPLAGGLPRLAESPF
Method in brief: (§1)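 cAMP output read as 665/620 nm HTRF ratio after adding cAMP-d2 plus anti-cAMP cryptate and incubating 1 h at room temperature in the dark or overnight at 4 °C. Cells: HEK293 expressing human GLP-1R or GCGR, plated from a 4×10^5 cells/mL suspension. Four-parameter fit gives EC50.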

GIPR = biological target: T2, GIPR (Homo sapiens, UniProt P48546); experiment: In vitro cell activity, cAMP production in HEK293 cells expressing GIPR; conditions: HEK293-GIPR cells, cAMP; read-out: GIPR (EC50)
T2 construct: expressed in transfected cells; host or cells: HEK293 (HEK293-GIPR)
T2 sequence (P48546 22-466): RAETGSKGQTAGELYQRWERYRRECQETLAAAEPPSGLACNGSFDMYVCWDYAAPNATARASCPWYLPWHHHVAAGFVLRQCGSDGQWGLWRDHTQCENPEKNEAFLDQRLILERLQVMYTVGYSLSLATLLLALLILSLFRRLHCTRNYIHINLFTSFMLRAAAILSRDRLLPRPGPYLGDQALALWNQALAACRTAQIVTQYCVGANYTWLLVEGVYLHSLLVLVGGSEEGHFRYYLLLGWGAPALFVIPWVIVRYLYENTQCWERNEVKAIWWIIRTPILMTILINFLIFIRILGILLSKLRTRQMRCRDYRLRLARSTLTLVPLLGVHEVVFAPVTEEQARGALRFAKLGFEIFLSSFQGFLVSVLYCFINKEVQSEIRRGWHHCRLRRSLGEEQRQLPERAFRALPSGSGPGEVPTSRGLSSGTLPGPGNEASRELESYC
Method in brief: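 HEK293 cells expressing human GIPR, thawed and diluted to 4×10^5 cells/mL, are stimulated with test compound. cAMP is measured by HTRF competition between cAMP-d2 and anti-cAMP cryptate. EC50 comes from a four-parameter nonlinear fit of signal ratio against concentration.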

GLP-1R = biological target: T3, GLP-1R (Homo sapiens, UniProt P43220); experiment: In vitro cell activity, cAMP production in HEK293 cells expressing GLP-1R; conditions: HEK293-GLP-1R cells, cAMP; read-out: GLP-1R (EC50)
T3 construct: expressed in transfected cells; host or cells: HEK293 (HEK293-GLP-1R)
T3 sequence (P43220 24-463, species assumed): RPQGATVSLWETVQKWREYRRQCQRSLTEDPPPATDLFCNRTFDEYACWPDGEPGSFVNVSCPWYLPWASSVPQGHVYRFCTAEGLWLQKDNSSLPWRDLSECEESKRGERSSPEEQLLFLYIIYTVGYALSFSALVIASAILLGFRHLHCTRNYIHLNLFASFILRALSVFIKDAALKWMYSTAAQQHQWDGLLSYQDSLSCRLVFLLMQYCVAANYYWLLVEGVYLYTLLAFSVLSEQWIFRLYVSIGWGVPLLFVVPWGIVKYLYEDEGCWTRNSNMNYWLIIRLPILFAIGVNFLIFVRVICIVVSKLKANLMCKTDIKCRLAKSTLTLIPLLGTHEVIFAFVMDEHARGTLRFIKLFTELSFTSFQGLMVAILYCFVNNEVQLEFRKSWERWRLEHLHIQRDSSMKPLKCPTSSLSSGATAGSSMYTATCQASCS
Method in brief: as §1

CC[C@H](C)[C@H](NC(=O)[C@H](CCCCN)NC(=O)[C@H](CC(=O)O)NC(=O)[C@H](CCCCNC(=O)COCCOCCNC(=O)CC[C@H](NC(=O)CCCCCCCCCCCCCCCCC(=O)O)C(=O)O)NC(=O)[C@H](CC(C)C)NC(=O)[C@@H](NC(=O)[C@H](CO)NC(=O)[C@H](Cc1ccc(O)cc1)NC(=O)[C@H](CC(=O)O)NC(=O)[C@H](CO)NC(=O)[C@@H](NC(=O)[C@](C)(Cc1ccccc1F)NC(=O)[C@@H](NC(=O)CNC(=O)[C@H](CCC(N)=O)NC(=O)C(C)(C)NC(=O)[C@@H](N)Cc1ccc(O)cc1)[C@@H](C)O)[C@@H](C)O)[C@@H](C)CC)C(=O)N[C@@H](C)C(=O)N[C@@H](CCC(N)=O)C(=O)N[C@@H](CCCCN)C(=O)N[C@@H](C)C(=O)N[C@@H](Cc1ccccc1)C(=O)N[C@H](C(=O)N[C@@H](CCC(=O)O)C(=O)N[C@@H](Cc1ccc(O)cc1)C(=O)N[C@@H](CC(C)C)C(=O)N[C@@H](CC(C)C)C(=O)N[C@@H](C)C(=O)NCC(=O)NCC(=O)N1CCC[C@H]1C(=O)N[C@@H](CO)C(=O)N[C@@H](CO)C(=O)NCC(=O)N[C@@H](C)C(=O)N1CCC[C@H]1C(=O)N1CCC[C@H]1C(=O)N1CCC[C@H]1C(=O)N[C@@H](CO)C(N)=O)[C@@H](C)CC [HEC-PT140] (H-Y[Aib]QGT[αMePhe(2-F)]TSDYSILK([AEEA-γGlu-C18 diacid])DKIAQKAFIEYLLAGGPSSGAPPPS-NH2)
EC50 (GCGR): 0.272 nM | EC50 (GIPR): 0.0543 nM | EC50 (GLP-1R): 0.152 nM

CC[C@H](C)[C@H](NC(=O)[C@H](CCCCN)NC(=O)[C@H](CC(=O)O)NC(=O)[C@H](CCCCNC(=O)COCCOCCNC(=O)CC[C@H](NC(=O)CCCCCCCCCCCCCCCCC(=O)O)C(=O)O)NC(=O)[C@H](CC(C)C)NC(=O)[C@@H](NC(=O)[C@H](CO)NC(=O)[C@H](Cc1ccc(O)cc1)NC(=O)[C@H](CC(=O)O)NC(=O)[C@H](CO)NC(=O)[C@@H](NC(=O)[C@](C)(Cc1ccccc1F)NC(=O)[C@@H](NC(=O)CNC(=O)[C@H](CCC(N)=O)NC(=O)C(C)(C)NC(=O)[C@@H](N)Cc1ccc(O)cc1)[C@@H](C)O)[C@@H](C)O)[C@@H](C)CC)C(=O)N[C@@H](C)C(=O)N[C@@H](CCC(N)=O)C(=O)N[C@@H](CCCCN)C(=O)N[C@@H](C)C(=O)N[C@@H](Cc1ccccc1)C(=O)N[C@H](C(=O)N[C@@H](CCC(=O)O)C(=O)N[C@@H](Cc1ccc(O)cc1)C(=O)N[C@@H](CC(C)C)C(=O)N[C@@H](CC(C)C)C(=O)N[C@@H](CCC(=O)O)C(=O)NCC(=O)NCC(=O)N1CCC[C@H]1C(=O)N[C@@H](CO)C(=O)N[C@@H](CO)C(=O)NCC(=O)N[C@@H](C)C(=O)N1CCC[C@H]1C(=O)N1CCC[C@H]1C(=O)N1CCC[C@H]1C(=O)N[C@@H](CO)C(N)=O)[C@@H](C)CC [HEC-PT141] (H-Y[Aib]QGT[αMePhe(2-F)]TSDYSILK([AEEA-γGlu-C18 diacid])DKIAQKAFIEYLLEGGPSSGAPPPS-NH2)
EC50 (GCGR): 0.216 nM | EC50 (GIPR): 0.0955 nM | EC50 (GLP-1R): 0.163 nM

CC[C@H](C)[C@H](NC(=O)[C@H](CCCNC(=N)N)NC(=O)[C@H](CC(=O)O)NC(=O)[C@H](CCCCNC(=O)COCCOCCNC(=O)CC[C@H](NC(=O)CCCCCCCCCCCCCCCCC(=O)O)C(=O)O)NC(=O)[C@H](CC(C)C)NC(=O)[C@@H](NC(=O)[C@H](CO)NC(=O)[C@H](Cc1ccc(O)cc1)NC(=O)[C@H](CC(=O)O)NC(=O)[C@H](CO)NC(=O)[C@@H](NC(=O)[C@](C)(Cc1ccccc1F)NC(=O)[C@@H](NC(=O)CNC(=O)[C@H](CCC(N)=O)NC(=O)C(C)(C)NC(=O)[C@@H](N)Cc1ccc(O)cc1)[C@@H](C)O)[C@@H](C)O)[C@@H](C)CC)C(=O)N[C@@H](C)C(=O)N[C@@H](CCC(N)=O)C(=O)N[C@@H](CCCNC(=N)N)C(=O)N[C@@H](C)C(=O)N[C@@H](Cc1ccccc1)C(=O)N[C@H](C(=O)N[C@@H](CCC(=O)O)C(=O)N[C@@H](Cc1ccc(O)cc1)C(=O)N[C@@H](CC(C)C)C(=O)N[C@@H](CC(C)C)C(=O)N[C@@H](CCC(=O)O)C(=O)NCC(=O)NCC(=O)N1CCC[C@H]1C(=O)N[C@@H](CO)C(=O)N[C@@H](CO)C(=O)NCC(=O)N[C@@H](C)C(=O)N1CCC[C@H]1C(=O)N1CCC[C@H]1C(=O)N1CCC[C@H]1C(=O)N[C@@H](CO)C(=O)O)[C@@H](C)CC [HEC-PT142] (H-Y[Aib]QGT[αMePhe(2-F)]TSDYSILK([AEEA-γGlu-C18 diacid])DRIAQRAFIEYLLEGGPSSGAPPPS-OH)
EC50 (GCGR): 0.113 nM | EC50 (GIPR): 0.142 nM | EC50 (GLP-1R): 0.16 nM

CC[C@H](C)[C@H](NC(=O)[C@H](Cc1ccccc1)NC(=O)[C@H](C)NC(=O)[C@H](CCC(N)=O)NC(=O)[C@H](CCC(N)=O)NC(=O)[C@H](CCCNC(=N)N)NC(=O)[C@@H](NC(=O)[C@H](CCCCN)NC(=O)[C@H](CC(=O)O)NC(=O)[C@H](CCCCNC(=O)COCCOCCNC(=O)CC[C@H](NC(=O)CCCCCCCCCCCCCCCCC(=O)O)C(=O)O)NC(=O)[C@H](CC(C)C)NC(=O)[C@@H](NC(=O)[C@H](CO)NC(=O)[C@H](Cc1ccc(O)cc1)NC(=O)[C@H](CC(=O)O)NC(=O)[C@H](CO)NC(=O)[C@@H](NC(=O)[C@](C)(Cc1ccccc1F)NC(=O)[C@@H](NC(=O)CNC(=O)[C@H](CCC(N)=O)NC(=O)C(C)(C)NC(=O)[C@@H](N)Cc1ccc(O)cc1)[C@@H](C)O)[C@@H](C)O)[C@@H](C)CC)[C@@H](C)CC)C(=O)N[C@@H](CCC(=O)O)C(=O)N[C@@H](Cc1ccc(O)cc1)C(=O)N[C@@H](CC(C)C)C(=O)N[C@@H](CC(C)C)C(=O)N[C@@H](CCC(=O)O)C(=O)NCC(=O)NCC(=O)N1CCC[C@H]1C(=O)N[C@@H](CO)C(=O)N[C@@H](CO)C(=O)NCC(=O)N[C@@H](C)C(=O)N1CCC[C@H]1C(=O)N1CCC[C@H]1C(=O)N1CCC[C@H]1C(=O)N[C@@H](CO)C(N)=O [HEC-PT143] (H-Y[Aib]QGT[αMePhe(2-F)]TSDYSILK([AEEA-γGlu-C18 diacid])DKIRQQAFIEYLLEGGPSSGAPPPS-NH2)
EC50 (GCGR): 0.173 nM | EC50 (GIPR): 0.063 nM | EC50 (GLP-1R): 0.14 nM

CC[C@H](C)[C@H](NC(=O)[C@H](Cc1ccccc1)NC(=O)[C@H](C)NC(=O)C(C)(C)NC(=O)[C@H](CCC(N)=O)NC(=O)[C@H](CCCNC(=N)N)NC(=O)[C@@H](NC(=O)[C@H](CCCCN)NC(=O)[C@H](CC(=O)O)NC(=O)[C@H](CCCCNC(=O)COCCOCCNC(=O)CC[C@H](NC(=O)CCCCCCCCCCCCCCCCC(=O)O)C(=O)O)NC(=O)[C@H](CC(C)C)NC(=O)[C@@H](NC(=O)[C@H](CO)NC(=O)[C@H](Cc1ccc(O)cc1)NC(=O)[C@H](CC(=O)O)NC(=O)[C@H](CO)NC(=O)[C@@H](NC(=O)[C@](C)(Cc1ccccc1F)NC(=O)[C@@H](NC(=O)CNC(=O)[C@H](CCC(N)=O)NC(=O)C(C)(C)NC(=O)[C@@H](N)Cc1ccc(O)cc1)[C@@H](C)O)[C@@H](C)O)[C@@H](C)CC)[C@@H](C)CC)C(=O)N[C@@H](CCC(=O)O)C(=O)N[C@@H](Cc1ccc(O)cc1)C(=O)N[C@@H](CC(C)C)C(=O)N[C@@H](CC(C)C)C(=O)N[C@@H](CCC(=O)O)C(=O)NCC(=O)NCC(=O)N1CCC[C@H]1C(=O)N[C@@H](CO)C(=O)N[C@@H](CO)C(=O)NCC(=O)N[C@@H](C)C(=O)N1CCC[C@H]1C(=O)N1CCC[C@H]1C(=O)N1CCC[C@H]1C(=O)N[C@@H](CO)C(N)=O [HEC-PT144]
EC50 (GCGR): 0.0366 nM | EC50 (GIPR): 0.0221 nM | EC50 (GLP-1R): 0.173 nM

CC[C@H](C)[C@H](NC(=O)[C@H](Cc1ccccc1)NC(=O)[C@H](C)NC(=O)C(C)(C)NC(=O)[C@H](CCC(N)=O)NC(=O)[C@H](CCCNC(=N)N)NC(=O)[C@@H](NC(=O)[C@H](CCCCN)NC(=O)[C@H](CC(=O)O)NC(=O)[C@H](CCCCNC(=O)COCCOCCNC(=O)CC[C@H](NC(=O)CCCCCCCCCCCCCCCCC(=O)O)C(=O)O)NC(=O)[C@H](CC(C)C)NC(=O)[C@@H](NC(=O)[C@H](CO)NC(=O)[C@H](Cc1ccc(O)cc1)NC(=O)[C@H](CC(=O)O)NC(=O)[C@H](CO)NC(=O)[C@@H](NC(=O)[C@](C)(Cc1ccccc1F)NC(=O)[C@@H](NC(=O)CNC(=O)[C@H](CCC(N)=O)NC(=O)C(C)(C)NC(=O)[C@@H](N)Cc1ccc(O)cc1)[C@@H](C)O)[C@@H](C)O)[C@@H](C)CC)[C@@H](C)CC)C(=O)N[C@@H](CCC(=O)O)C(=O)N[C@@H](Cc1ccc(O)cc1)C(=O)N[C@@H](CC(C)C)C(=O)N[C@@H](CC(C)C)C(=O)N[C@@H](C)C(=O)NCC(=O)NCC(=O)N1CCC[C@H]1C(=O)N[C@@H](CO)C(=O)N[C@@H](CO)C(=O)NCC(=O)N[C@@H](C)C(=O)N1CCC[C@H]1C(=O)N1CCC[C@H]1C(=O)N1CCC[C@H]1C(=O)N[C@@H](CO)C(N)=O [HEC-PT145] (H-Y[Aib]QGT[αMePhe(2-F)]TSDYSILK([AEEA-γGlu-C18 diacid])DKIRQ[Aib]AFIEYLLAGGPSSGAPPPS-NH2)
EC50 (GCGR): 0.066 nM | EC50 (GIPR): 0.0316 nM | EC50 (GLP-1R): 0.126 nM
